Patent US11331393B2, “Renal-homing peptide conjugates and methods of use thereof” (BLAZE BIOSCIENCE, INC., priority 2017, dated 2022)
Ends that are not written are not given here.

Test system: kidneys
Conditions: unlabeled competitor 100 or 2000 nmol co-injected with 2 nmol SEQ ID NO: 4-AF647; 1 hour

KKEEEKKEEEKKEEEKK [SEQ ID NO: 571]
competition with uptake of the peptide of SEQ ID NO: 4 in kidneys: failed to compete
